# Measured values: patent publication US9676757B2, “Heterocyclic compounds as NaV channel inhibitors and uses thereof” (Merck Patent GmbH, priority 2014, dated 2017)
# Read-outs that look alike come from different tables or passages of the source.
# Target: Nav1.6 (Homo sapiens, UniProt Q9UQD0)
# Experiment: Nav two-pulse protocol, IonWorks Quattro electrophysiology
# Type: cell-based
# Conditions: -120 mV to 0 mV, compound incubated 300 s
# Procedure: Compound Plate Preparation
# Supplied compounds were sent as Assay Ready Plates, with 2 μL per well of compound in DMSO at 300× the final assay concentrations as described above and in the project proposal. All assay plates are stored at in a −80° C. freezer.
# On the day of the assay, 198 μL of external solution was added to the appropriate assay plate and mixed thoroughly. This provided a 1:100 dilution. A further 1:3 dilution occurred upon addition to the cells in the IonWorks, giving a 1:300 dilution in total.
# On each assay plate, at least 8 wells were reserved for vehicle control (0.3% DMSO) and at least 8 wells for each positive control specific to the cell line tested. The positive controls were tested in an 8-point dose response with 3-fold dilutions to determine an IC50 value for each run. The positive control compounds are outlined below.
# Ion Channel Positive Control & Concentrations
# Nav1.6/1.2 Lidocaine: 8, 3-fold dilutions starting at 100 μM
# Electrophysiological Recording Solutions
# The solutions for recording currents were are follows:
# Amphotericin B was used to obtain electrical access to the cell interior at a final concentration of 200 μg/ml in internal recording solution.
# Experimental Protocols & Data Analysis
# Nav currents were evoked by stepping from a holding potential of −120 mV to 0 mV for 2.5 s (pulse 1), followed by a 5 ms inter-pulse interval, and stepping from a holding potential of −120 mV to 0 mV for 20 ms (pulse 2). The voltage protocol was applied (Pre), compounds added, incubated for 300 seconds, and the voltage protocol was applied a final time (Post) on the IonWorks Quattro.
# The parameters measured were the maximum inward current evoked on stepping to 0 mV from the 1st and 2nd pulse. All data were filtered for seal quality, seal drop, and current amplitude. The peak current amplitude (Peak) was calculated before (Pre) and after (Post) compound addition to the amount of block was assessed by dividing the Post-compound current amplitude by the Pre-compound current amplitude. These procedures were implemented for the 1st and 2nd pulse.
# Sequence of Nav1.6 (Q9UQD0 whole entry): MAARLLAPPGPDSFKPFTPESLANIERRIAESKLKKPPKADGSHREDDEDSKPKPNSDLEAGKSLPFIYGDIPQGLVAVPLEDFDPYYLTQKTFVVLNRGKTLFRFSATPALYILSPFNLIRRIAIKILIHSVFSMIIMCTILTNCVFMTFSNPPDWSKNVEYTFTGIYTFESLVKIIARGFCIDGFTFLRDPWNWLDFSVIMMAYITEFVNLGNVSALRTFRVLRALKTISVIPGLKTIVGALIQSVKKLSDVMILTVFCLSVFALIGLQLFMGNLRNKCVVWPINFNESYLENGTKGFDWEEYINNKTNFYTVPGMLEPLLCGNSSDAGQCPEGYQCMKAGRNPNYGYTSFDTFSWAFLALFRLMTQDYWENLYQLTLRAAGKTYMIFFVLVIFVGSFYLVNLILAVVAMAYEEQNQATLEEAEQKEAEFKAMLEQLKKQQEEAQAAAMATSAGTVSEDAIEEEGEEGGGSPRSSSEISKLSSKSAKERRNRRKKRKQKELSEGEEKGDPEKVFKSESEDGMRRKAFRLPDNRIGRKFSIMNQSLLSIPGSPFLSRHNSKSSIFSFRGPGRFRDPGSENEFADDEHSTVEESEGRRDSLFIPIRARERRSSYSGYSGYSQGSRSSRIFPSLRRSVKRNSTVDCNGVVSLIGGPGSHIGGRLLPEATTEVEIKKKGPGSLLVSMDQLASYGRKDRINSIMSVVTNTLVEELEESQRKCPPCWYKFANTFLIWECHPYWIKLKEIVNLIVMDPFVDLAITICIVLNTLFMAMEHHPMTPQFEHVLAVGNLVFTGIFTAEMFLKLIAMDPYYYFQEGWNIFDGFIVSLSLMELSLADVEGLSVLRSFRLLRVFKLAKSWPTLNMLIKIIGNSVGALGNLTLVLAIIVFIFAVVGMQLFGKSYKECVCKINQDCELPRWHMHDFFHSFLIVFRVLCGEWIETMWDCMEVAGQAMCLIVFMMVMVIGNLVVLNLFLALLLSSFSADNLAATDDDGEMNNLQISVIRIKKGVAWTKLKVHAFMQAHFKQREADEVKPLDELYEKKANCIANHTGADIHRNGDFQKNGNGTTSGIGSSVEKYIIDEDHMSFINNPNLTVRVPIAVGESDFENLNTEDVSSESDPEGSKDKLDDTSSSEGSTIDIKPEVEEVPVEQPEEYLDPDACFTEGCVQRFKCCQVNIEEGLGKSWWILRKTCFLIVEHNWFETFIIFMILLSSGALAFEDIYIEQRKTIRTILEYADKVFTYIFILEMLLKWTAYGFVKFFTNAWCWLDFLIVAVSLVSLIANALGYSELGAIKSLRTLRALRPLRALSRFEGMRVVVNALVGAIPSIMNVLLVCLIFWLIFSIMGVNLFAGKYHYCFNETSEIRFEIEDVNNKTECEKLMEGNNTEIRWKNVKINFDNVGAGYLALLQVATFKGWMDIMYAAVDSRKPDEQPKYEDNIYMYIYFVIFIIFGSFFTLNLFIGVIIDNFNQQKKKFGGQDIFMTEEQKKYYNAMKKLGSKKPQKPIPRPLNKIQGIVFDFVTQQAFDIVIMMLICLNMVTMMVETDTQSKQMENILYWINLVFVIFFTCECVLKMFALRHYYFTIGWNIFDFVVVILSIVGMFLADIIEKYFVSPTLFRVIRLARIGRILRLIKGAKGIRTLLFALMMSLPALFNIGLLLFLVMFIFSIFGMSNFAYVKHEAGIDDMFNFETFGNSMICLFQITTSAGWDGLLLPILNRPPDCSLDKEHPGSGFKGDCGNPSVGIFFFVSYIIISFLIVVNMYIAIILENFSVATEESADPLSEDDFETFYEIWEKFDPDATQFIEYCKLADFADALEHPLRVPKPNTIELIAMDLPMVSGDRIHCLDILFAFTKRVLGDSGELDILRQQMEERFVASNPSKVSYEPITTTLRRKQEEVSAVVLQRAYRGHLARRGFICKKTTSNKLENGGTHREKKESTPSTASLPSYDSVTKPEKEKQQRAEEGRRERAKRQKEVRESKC
IC50 (read-out: Nav1.6 Tonic) [µM],IC50 (read-out: Nav1.6 inac) [µM],Structure (SMILES)
> 20,< 1,"Cc1ccc(Oc2cccc(CN3CCC(C(=O)NCc4ccccn4)C3)c2)cc1 (centres unmarked) [Compound 1, 1-(3-p-Tolyloxy-benzyl)-pyrrolidine-3-carboxylic acid (pyridin-2-ylmethyl)-amide]"
> 20,1 to 5,"COc1cccc(Oc2cccc(CN3CCC(C(=O)NCc4ccccn4)C3)c2)c1 (centres unmarked) [Compound 2, 1-[3-(3-Methoxy-phenoxy)-benzyl]-pyrrolidine-3-carboxylic acid (pyridin-2-ylmethyl)-amide]"
> 20,1 to 5,"O=C(NCc1ccccn1)C1CCN(Cc2cccc(Oc3ccc(F)c(F)c3)c2)C1 (centres unmarked) [Compound 3, 1-[3-(3,4-Difluoro-phenoxy)-benzyl]-pyrrolidine-3-carboxylic acid (pyridin-2-ylmethyl)-amide]"
> 20,< 1,"O=C(NCc1ccccn1)C1CCN(Cc2cccc(Oc3cccc(C(F)(F)F)c3)c2)C1 (centres unmarked) [Compound 5, 1-[3-(3-Trifluoromethyl-phenoxy)-benzyl]-pyrrolidine-3-carboxylic acid (pyridin-2-ylmethyl)-amide]"
> 20,> 5,"COc1ccc(Oc2cccc(CN3CCC(C(=O)NCc4ccccn4)C3)c2)cc1 (centres unmarked) [Compound 6, 1-[3-(4-Methoxy-phenoxy)-benzyl]-pyrrolidine-3-carboxylic acid (pyridin-2-ylmethyl)-amide]"
> 20,< 1,"O=C(NCc1ccccn1)C1CCN(Cc2cccc(Oc3ccc(F)cc3F)c2)C1 (centres unmarked) [Compound 8, 1-[3-(2,4-Difluoro-phenoxy)-benzyl]-pyrrolidine-3-carboxylic acid (pyridin-2-ylmethyl)-amide]"
> 20,< 1,"Cc1cc(C)cc(Oc2cccc(CN3CCC(C(=O)NCc4ccccn4)C3)c2)c1 (stereo not drawn) [Compound 9, l-[3-(3,5-Dimethyl-phenoxy)-benzyl]-pyrrolidine-3-carboxylic acid (pyridin-2-ylmethyl)-amide]"
10 to 20,1 to 5,"Cc1ccc(Oc2cccc(CN3CCC(C(=O)NCc4ccccn4)C3)c2)cc1C (centres unmarked) [Compound 10, 1-[3-(3,4-Dimethyl-phenoxy)-benzyl]-pyrrolidine-3-carboxylic acid (pyridin-2-ylmethyl)-amide]"
10 to 20,< 1,"O=C(NCc1ccccn1)C1CCN(Cc2cccc(Oc3cccc(F)c3)c2)C1 (centres unmarked) [Compound 11, 1-[3-(3-Fluoro-phenoxy)-benzyl]-pyrrolidine-3-carboxylic acid (pyridin-2-ylmethyl)-amide]"
> 20,< 1,"O=C(NCc1ccccn1)C1CCN(Cc2cccc(Oc3ccc(F)cc3)c2)C1 (centres unmarked) [Compound 13, 1-[3-(4-Fluoro-phenoxy)-benzyl]-pyrrolidine-3-carboxylic acid (pyridin-2-ylmethyl)-amide]"
> 20,> 5,"O=C(NCc1ccccn1)C1CCN(Cc2cccc(Oc3ccccc3F)c2)C1 (centres unmarked) [Compound 14, 1-[3-(2-Fluoro-phenoxy)-benzyl]-pyrrolidine-3-carboxylic acid (pyridin-2-ylmethyl)-amide]"
> 20,1 to 5,"O=C(NCc1ccccn1)C1(F)CCN(Cc2cccc(Oc3ccc(F)c(F)c3)c2)C1 (centres unmarked) [Compound 24, 1-[3-(3,4-Difluoro-phenoxy)-benzyl]-3-fluoro-pyrrolidine-3-carboxylic acid (pyridin-2-ylmethyl)-amide]"

# The remaining lines, values behind:
Structure (SMILES),IC50 (read-out: Nav1.6 Tonic) [µM],IC50 (read-out: Nav1.6 inac) [µM]
"O=C(NCc1ccccn1)C1CCN(Cc2cccc(Oc3ccccn3)c2)C1 (centres unmarked) [Compound 4, 1-[3-(Pyridin-2-yloxy)-benzyl]-pyrrolidine-3-carboxylic acid (pyridin-2-ylmethyl)-amide]",10 to 20,< 1
"COc1ccccc1Oc1cccc(CN2CCC(C(=O)NCc3ccccn3)C2)c1 (centres unmarked) [Compound 7, 1-[3-(2-Methoxy-phenoxy)-benzyl]-pyrrolidine-3-carboxylic acid (pyridin-2-ylmethyl)-amide]",> 20,< 1
"O=C(NCc1ccccn1)C1CCN(Cc2cccc(Oc3cccnc3)c2)C1 (centres unmarked) [Compound 12, 1-[3-(Pyridin-3-yloxy)-benzyl]-pyrrolidine-3-carboxylic acid (pyridin-2-ylmethyl)-amide]",> 20,1 to 5
"O=C(NCc1ccccn1)C1CCN(Cc2ccc(F)c(Oc3ccccc3)c2)C1 (centres unmarked) [Compound 15, 1-(4-Fluoro-3-phenoxy-benzyl)-pyrrolidine-3-carboxylic acid (pyridin-2-ylmethyl)-amide]",> 20,> 5
"Cc1cncc(Oc2cccc(CN3CCC(C(=O)NCc4ccccn4)C3)c2)n1 (centres unmarked) [Compound 18, 1-[3-(6-Methyl-pyrazin-2-yloxy)-benzyl]-pyrrolidine-3-carboxylic acid (pyridin-2-ylmethyl)-amide]",> 20,> 5
"COc1ccc(Oc2cccc(CN3CCC(C(=O)NCc4ccccn4)C3)n2)cc1 (centres unmarked) [Compound 19, 1-[6-(4-Methoxy-phenoxy)-pyridin-2-ylmethyl]-pyrrolidine-3-carboxylic acid (pyridin-2-ylmethyl)-amide]",> 20,1 to 5
"O=C(NCc1ccccn1)C1CCN(Cc2cccc(Oc3ccc(F)cc3)n2)C1 (centres unmarked) [Compound 20, 1-[6-(4-Fluoro-phenoxy)-pyridin-2-ylmethyl]-pyrrolidine-3-carboxylic acid (pyridin-2-ylmethyl)-amide]",> 20,> 5
"Cc1cccc(Oc2cccc(CN3CCC(F)(C(=O)NCc4ccccn4)C3)c2)c1 (centres unmarked) [Compound 21, 3-Fluoro-1-(3-m-tolyloxy-benzyl)-pyrrolidine-3-carboxylic acid (pyridin-2-ylmethyl)-amide]",> 20,1 to 5
"Cc1ccc(Oc2cccc(CN3CCC(F)(C(=O)NCc4ccccn4)C3)c2)cc1 (centres unmarked) [Compound 22, 3-Fluoro-1-(3-p-tolyloxy-benzyl)-pyrrolidine-3-carboxylic acid (pyridin-2-ylmethyl)-amide]",> 20,1 to 5
"COc1cccc(Oc2cccc(CN3CCC(F)(C(=O)NCc4ccccn4)C3)c2)c1 (centres unmarked) [Compound 23, 3-Fluoro-1-[3-(3-methoxy-phenoxy)-benzyl]-pyrrolidine-3-carboxylic acid (pyridin-2-ylmethyl)-amide]",> 20,1 to 5
"O=C(NCc1ccccn1)C1(F)CCN(Cc2cccc(Oc3cccc(C(F)(F)F)c3)c2)C1 (centres unmarked) [Compound 25, 3-Fluoro-1-[3-(3-trifluoromethyl-phenoxy)-benzyl]-pyrrolidine-3-carboxylic acid (pyridin-2-ylmethyl)-amide]",> 20,1 to 5
"CC(C)c1ccc(Oc2cccc(CN3CCC(F)(C(=O)NCc4ccccn4)C3)c2)cc1 (centres unmarked) [Compound 26, 3-Fluoro-1-[3-(4-isopropyl-phenoxy)-benzyl]-pyrrolidine-3-carboxylic acid (pyridin-2-ylmethyl)-amide]",> 20,1 to 5
"CC1(C(=O)NCc2ccccn2)CCN(Cc2cccc(Oc3ncccn3)c2)C1 (centres unmarked) [Compound 27, 3-Methyl-1-[3-(pyrimidin-2-yloxy)-benzyl]-pyrolidine-3-carboxylic acid (pyridin-2-ylmethyl)-amide]",> 20,> 5
"CC(C)COc1cccc(CN2CCC(Cn3ccnc3)C2)c1 (centres unmarked) [Compound 28, 1-[1-(3-Isobutoxy-benzyl)-pyrrolidin-3-ylmethyl]-1H-imidazole]",> 20,< 1
"O=C(NCc1ccccn1)C1CCN(Cc2cccc(-c3ccccc3)c2)C1 (centres unmarked) [Compound 29, 1-Biphenyl-3-ylmethyl-pyrrolidine-3-carboxylic acid (pyridin-2-ylmethyl)-amide]",10 to 20,1 to 5
"O=C(NCc1ccccn1)C1CCN(Cc2cccc(OCC(F)(F)F)c2)C1 (centres unmarked) [Compound 30, 1-[3-(2,2,2-Trifluoro-ethoxy)-benzyl]-pyrrolidine-3-carboxylic acid (pyridin-2-ylmethyl)-amide]",> 20,< 1
"O=C(NCc1ccccn1)C1CCN(Cc2ccc3c(c2)OC(F)(F)O3)C1 (centres unmarked) [Compound 31, 1-(2,2-Difluoro-benzo[1,3]dioxol-5-ylmethyl)-pyrrolidine-3-carboxylic acid (pyridin-2-ylmethyl)-amide]",> 20,1 to 5
"CC1(C)Cc2cc(CN3CCC(C(=O)NCc4ccccn4)C3)ccc2O1 (centres unmarked) [Compound 32, 1-(2,2-Dimethyl-2,3-dihydro-benzofuran-5-ylmethyl)-pyrrolidine-3-carboxylic acid (pyridin-2-ylmethyl)-amide]",> 20,1 to 5
"CC1(C)Oc2ccc(CN3CCC(C(=O)NCc4ccccn4)C3)cc2O1 (centres unmarked) [Compound 33, 1-(2,2-Dimethyl-benzo[1,3]dioxol-5-ylmethyl)-pyrrolidine-3-carboxylic acid (pyridin-2-ylmethyl)-amide]",> 20,1 to 5
